Data taken from paper PMC6196658, “Activity of Thioallyl Compounds From Garlic Against Giardia duodenalis Trophozoites and in Experimental Giardiasis” (Frontiers in Cellular and Infection Microbiology, 2018).
Values after ≈ are worked out from the molar mass of the structure shown. Values joined by “and” are separate entries in the source; they are usually repeats but may differ in a detail not shown here. Identical values can stand only once. Like-named read-outs stand apart in the source and are kept apart here.

What was measured:
Eimeria tenella = tested on: Eimeria tenella; parameters: method as in Alnassan et al., 2015; conditions: ref Alnassan et al., 2015; cited from earlier work
Plasmodium berghei = tested on: Plasmodium berghei; parameters: method as in Coppi et al., 2006; conditions: mice, ref Coppi et al., 2006, cited from earlier work
[1] = tested on: G. duodenalis trophozoites; experiment: In vitro susceptibility, direct cell count (DCC); type: cell-based, Giardia duodenalis (WB strain); conditions: 24 h exposure
[2] = tested on: G. duodenalis trophozoites; experiment: In vitro susceptibility, subculture in liquid medium (SCLM); type: cell-based, Giardia duodenalis (WB strain); conditions: SCLM; for IC50: Giardia duodenalis
[3] = tested on: cysteine protease activities in trophozoite lysates; experiment: Proteolytic activity assay (gelatin zymogram); type: biochemical, Giardia duodenalis; conditions: 3.5 mM; bands 110, 60, 75 and 25 kDa
Description: Trophozoite lysates were prepared as mentioned above except that cell lysis was carried out by sonication in 1.5 mL microcentrifuge tubes under ice bath using eight 15-s pulses at 80% amplitude with resting periods of 30 s (Ultrasonic Processor mod. CV19). Protein concentration was adjusted to 2 mg/mL and aliquoted in 25 μL fractions that were incubated for 30 min room temperature with 2–5 μL stock solutions of representative TACs (ALC, DADS, and AM). The reaction mixtures were diluted in Laemmli's sample buffer, loaded in wells of 10% acrylamide-02% gelatin slab gels and these were electrophoretically analyzed using 80 V/4°C. After this, gels were incubated in a solution of triton X-100 2.5% (v/v) in water for 1 h and washed 3 times with distilled water. Bands with proteolytic activity were detected as follows: gels were incubated in acetate buffer pH 5.5 with 1 mM DTT for 16 h at 37°C under constant stirring, washed 3 times with distilled water and stained with Coomassie blue (BioRad) for 2 h at 37°C under constant stirring. Finally, gels were washed with distilled water and incubated with a solution of 5% acetic acid/40% methanol (v/v). Gel images were documented with a UVP High Performance Ultraviolet Transilluminator and software Launch DocItLS.

[4] = tested on: G. duodenalis trophozoites; experiment: Annexin V-PI flow cytometry (apoptosis/necrosis); type: cell-based, Giardia duodenalis; conditions: 0.6 mM (MLC), 24 h
Description: (§1) The identification and quantitative determinations of trophozoites were carried out as follows: (a) apoptosis or necrosis were determined using anti-annexin V-fluorescein isothiocyanate (FITC) antibodies or PI as respective markers, (b) oxidative stress was determined by formation of reactive oxygen species (ROS) with the fluorescent ROS-complexing agent 5-(and 6)-carboxy 2′7′-dichlorodihydrofluorescein diacetate (H2DCFDA), and (c) determination of trophozoites cell cycle stages (G1, S, G2, and G2/M) after exposure to ALC or to a control drug (albendazole, ABZ) was carried out as previously described (Martínez-Espinosa et al., [2015]). In all these assays 20,000 cells per sample were recorded.

[5] = tested on: G. duodenalis trophozoites; experiment: In vitro susceptibility, MTT reduction; type: cell-based, Giardia duodenalis (WB strain)
[6] = tested on: G. duodenalis trophozoites; experiment: ROS formation, H2DCFDA flow cytometry; type: cell-based, Giardia duodenalis; conditions: 1.2 mM (twice MLC), 24 h
Description: as §1

[7] = tested on: G. duodenalis trophozoites; experiment: In vitro susceptibility, trypan blue exclusion (TBE); type: cell-based, Giardia duodenalis (WB strain); conditions: 24 h exposure
Description: G. duodenalis trophozoites from the WB strain (ATCC # 30957) were axenically cultured in modified Diamond's TYI-S-33 medium (Keister, [1983]) without bile at 37°C. Cell harvests were carried out by chilling flasks at the log phase of growth reached after 72–96 h routine subcultures. Detached trophozoites were either directly counted in a haemocytometer or washed 3 times with phosphate buffer saline (PBS) prior to counting and the cell number was adjusted as required in the assays.
When complete TYI-S-33 medium (final cysteine concentration = 12.4 mM) was used, it was no older than 10 days to avoid cysteine oxidation. […] Parasites were harvested and counted and trophozoite's viability was determined by physiological methods to determine the growth capacity of trophozoites after drug exposure (subculture in liquid medium SCLM)] or trophozoite and membrane integrity [direct cell count (DCC) and trypan blue exclusion (TBE), respectively]. […] All these protocols have been described elsewhere (Argüello-García et al., [2004]) except that DCC values were calculated from total cell numbers of compound-exposed trophozoites divided by the initial trophozoites' inoculum (1 × 10^6) and TBE was performed by incubating PBS-washed parasites in a trypan blue solution (0.4% [w/v] final concentration) for 5 min at room temperature followed by microscopic count of “stained” (non-viable) parasites. […]

[8] = rat, no reference given; cited from earlier work
Spironucleus vortens = tested on: Spironucleus vortens; parameters: method as in Millet et al., 2011; conditions: ref Millet et al., 2011; cited from earlier work

C=CCS[S+]([O-])CC=C (centres unmarked) [ALC, diallyl thiosulfinate]
IC99 (Eimeria tenella): 11.1 mM
mortality (Plasmodium berghei; 4 daily doses of 8 mg/kg intravenously): markedly reduced mortality
mortality (Plasmodium berghei; 4 daily doses of 9 mg/kg orally): markedly reduced mortality
MLC (mM) ±SD [1]: 1.08 mM (≈ 175 µg/mL)
MLC (mM) ±SD ([1]; listed as Allicin): 1.088 ± 0.24 mM (≈ 177 µg/mL)
IC50 ([1]; Giardia duodenalis): 369 ± 21 µM
IC50 ([2]; 24 h exposure (Figure 6B), read-out: IC50 ± SD): 0.322 ± 0.023 mM
IC50 ([2]; 24 h exposure, read-out: IC50 (mM) ±SD): 0.32 ± 0.02 mM
MLC (mM) ±SD ([2]; 24 h exposure): 0.6 mM (≈ 97.4 µg/mL)
concentration at which parasite replication was suppressed ([2]; 24 h exposure): 600 µM
MLC (mM) ±SD ([2]; 24 h exposure, listed as Allicin): 0.600 ± 0.016 mM (≈ 97.4 µg/mL)
effect on proteolytic bands in zymogram [3]: strongly inhibited
R4 cells positive for early apoptosis (annexin V+) [4]: 10.2%
IC50 ([5]; Giardia duodenalis, MTT assay, value as quoted in Discussion): 686 µM
MLC (mM) ±SD ([5]; MTT, 24 h exposure): 1.490 ± 0.025 mM (≈ 242 µg/mL)
cells positive for ROS (total) [6]: 0.75%
MLC (mM) ±SD [7]: 1.12 mM and 1.127 ± 0.05 mM
IC50 ([7]; Giardia duodenalis): 405 ± 38 µM
oral lethality [8]: 980 mg/kg
IC50 (Spironucleus vortens): > 1120 µM
